Like-named read-outs stand apart in the source and are kept apart here.
Tests used:
786-O = test: Cell proliferation (Alamar Blue) assay, 786-O renal cell carcinoma, with/without ferrostatin; type: cell-based; settings: Homo sapiens
Description: (§1) Cell viability assay was performed to assess the potency of the compounds in human cancer cell lines 786-O (renal cell carcinoma) and SJSA-1 (osteosarcoma). Additional cell lines, such as those described above in Example 4 as well as various others, e.g., pancreatic cancer cell lines (Panc 02.13, BxPC-3, Panc 12, Panc 02.03, Panc 6.03, PSN-1, HPAC, and Capan-1) and prostate cancer cell lines (PC-3, DU145, 22Rv1, NCI-H660, BPH1, LNCaP, BM-1604, and MDA PCa 2b), were tested for select compounds as shown in Table 25.
(§2) Cells (SJSA-1, 786-O and A431) were seeded (5000 cells/100 μL/well) in 96-well tissue culture plate and incubated at 37° C./5% CO2 for 16-24 hours. The cells were then treated with compounds (25 μL of 5×). The compound concentrations were 10-0.0005 μM prepared in 3-fold serial dilutions with final DMSO concentration of 1%. The plates were then incubated for 24 h at 37° C./5% CO2 in a moist environment. Then Alamar Blue™ reagent (final concentration 1×-12.5 μL) was added to each well and incubated for 1.5 hours at 37° C./5% CO2. The plates were read on fluorescence reader at 540 nm excitation and 590 nm emission wavelengths. The IC50 values were subsequently determined using a sigmoidal dose-response curve (variable slope) in GraphPad Prism® 5 software.
(§3) Studies have shown that lipophilic antioxidants, such as ferrostatin, can rescue cells from GPX4 inhibition-induced ferroptosis. For instance, mesenchymal state GPX4-knockout cells can survive in the presence of ferrostatin, however, when the supply of ferrostatin is terminated, these cells undergo ferroptosis (see, e.g., Viswanathan et al., Nature 547:453-7, 2017). […] Accordingly, the ability of a molecule to induce ferroptotic cancer cell death, and that such ability is admonished by the addition of ferrostatin, is clear indication that the molecule is an GPX4 inhibitor.

SJSA-1 = test: Cell proliferation (Alamar Blue) assay, SJSA-1 osteosarcoma, with/without ferrostatin; type: cell-based, human; settings: Homo sapiens
Description: as §1, §2, §3

KP4 = test: Cell viability assay (CellTiter Glo), pancreatic ductal adenocarcinoma KP4; type: cell-based, human; settings: Homo sapiens, KP-4, 96 h, pancreatic cancer cell line KP4, 96 hours, CellTiter Glo; read-out: IC50 μM KP4
Method in brief: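 Luminescent ATP readout (CellTiter Glo) after 96 h compound exposure, normalized to DMSO-treated cells as maximum. Compounds ran in duplicate, nine 3-fold steps from 30 μM down to 4.6 nM, final DMSO ≤0.25%; KP4 plated overnight at 1,000–10,000 cells/well. Outputs: IC50, relative IC50 or % top inhibition.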

[1] = 786-0, Cell Line 786-O, read-out: IC50
[2] = SJSA-1, Cell Line SJSA-1, read-out: IC50
[3] = SJSA-1, 24 h, Alamar Blue, 24 h, 2 μM ferrostatin, read-out: SJSA-1 (IC50, μM) 2 μM Ferrostatin
[4] = SJSA-1, 24 h, Alamar Blue, 24 h, without ferrostatin, read-out: SJSA-1 (IC50, μM) Without Ferrostatin
[5] = 786-0, 24 h, Alamar Blue, 24 h, 2 μM ferrostatin, read-out: 786-O (IC50, μM) 2 μM Ferrostatin
[6] = 786-0, 24 h, Alamar Blue, 24 h, without ferrostatin, read-out: 786-O (IC50, μM) Without Ferrostatin

| SMILES | IC50 (786-O; [1]) [µM] | IC50 (SJSA-1; [2]) [µM] | other results |
| --- | --- | --- | --- |
| C[C@H]1Cc2c([nH]c3ccccc23)C(c2ccc(S(N)(=O)=O)cc2)N1C(=O)CCl (some centres unmarked) [Compound 123] | 2.4 | – | – |
| C[C@H]1Cc2c([nH]c3ccccc23)C(c2ccc(N3CCOCC3)nc2)N1C(=O)CCl (some centres unmarked) [Compound 124] | 0.245 | – | – |
| CC1CN(c2ccc([C@@H]3c4[nH]c5ccccc5c4C[C@H](C)N3C(=O)CCl)cc2)CCO1 (some centres unmarked) [Compound 127] | > 10 | – | – |
| COC[C@H]1Cc2c([nH]c3ccccc23)C(c2ccc(C(=O)NC3CC3)cc2F)N1C(=O)CCl (stereo partly drawn) [Compound 162, 4-((3R)-2-(2-chloroacetyl)-3-(methoxymethyl)-2,3,4,9-tetrahydro-1H-pyrido[3,4-b]indol-1-yl)-N-cyclopropyl-3-fluorobenzamide] | 0.06 | 0.085 | – |
| COC(=O)[C@H]1Cc2c([nH]c3ccccc23)[C@@H](c2ccc(C(=O)NC34CC5CC(CC(C5)C3)C4)cc2)N1C(=O)CCl [Compound 130, Methyl-(1R,3R)-1-(4-(((3S,5S,7S)-adamantan-1-yl)carbamoyl)phenyl)-2-(2-chloroacetyl)-2,3,4,9-tetrahydro-1H-pyrido[3,4-b]indole-3-carboxylate] | 1.8 | 2.7 | – |
| COc1ccc2[nH]c3c(c2c1)C[C@H](C)N(C(=O)CCl)[C@H]3c1ccc(F)cc1 [Compound 281] | 0.206 | 0.261 | – |
| C#CC(=O)N1[C@@H](c2ccc(N3CCOCC3)cc2)c2[nH]c3ccccc3c2C[C@@H]1C [Compound 231] | 0.27 | – | – |
| C#CC(=O)N1[C@@H](c2ccc(C(=O)NC3CC3)cc2)c2ccc(OC)cc2C[C@@H]1C [Compound 279] | 0.58 | 1 | – |
| C[C@H]1Cc2c([nH]c3ccccc23)[C@H](c2ccc(N3CCOCC3)nc2)N1C(=O)CCl [Compound 220] | 0.098 | – | – |
| C[C@H]1Cc2c([nH]c3ccccc23)[C@H](c2ccc(S(=O)(=O)NC3CCNCC3)cc2)N1C(=O)CCl [Compound 218, 4-((1S,3S)-2-(2-chloroacetyl)-3-methyl-2,3,4,9-tetrahydro-1H-pyrido[3,4-b]indol-1-yl)-N-(piperidin-4-yl)benzenesulfonamide] | 8.1 | 1.4 | – |
| C[C@H]1Cc2c([nH]c3ccccc23)[C@H](c2cnn(C3CCOCC3)c2)N1C(=O)CCl [Compound 158] | 0.591 | – | – |
| C[C@H]1Cc2c([nH]c3ccccc23)[C@H](c2ccc(S(=O)(=O)NC3CCN(C(=O)OC(C)(C)C)CC3)cc2)N1C(=O)CCl [Compound 293, tert-butyl-4-((4-((1S,3S)-2-(2-chloroacetyl)-3-methyl-2,3,4,9-tetrahydro-1H-pyrido[3,4-b]indol-1-yl)phenyl)sulfonamido)piperidine-1-carboxylate] | 0.067 | 0.03 | – |
| COc1ccc2c(c1)C[C@H](C)N(C(=O)CCl)[C@H]2c1ccc(C(=O)NC2CC2)cc1 [Compound 280] | 0.21 | 0.38 | – |
| Cc1ccc(S(=O)(=O)OCC(=O)N2[C@@H](c3ccc(N4CCOCC4)cc3)c3[nH]c4ccccc4c3C[C@@H]2C)cc1 [Compound 223] | 0.275 | – | – |
| C[C@H]1Cc2c([nH]c3ccccc23)[C@@H](c2ccc(C(=O)Nc3ccccn3)cc2)N1C(=O)CCl (single isomer, unassigned) [Compound 160] | 1 | 1.3 | – |
| CCS(=O)(=O)N1CCN(c2ccc([C@H]3c4[nH]c5ccccc5c4C[C@H](C)N3C(=O)CCl)cc2)CC1 [Compound 209] | 0.022 | – | IC50 (SJSA-1; [3]): 8.29 µM; IC50 (SJSA-1; [4]): 0.019 µM; IC50 (786-O; [5]): > 10 µM; IC50 (786-O; [6]): 0.022 µM |

| SMILES | IC50 (786-O; [1]) [µM] | IC50 (SJSA-1; [2]) [µM] | other results |
| --- | --- | --- | --- |
| C#CC(=O)N1[C@@H](c2ccc(F)cc2)c2[nH]c3ccc(OC)cc3c2C[C@@H]1C [Compound 282] | 0.223 | 0.436 | – |
| CC1CN(c2ccc([C@H]3c4[nH]c5ccccc5c4C[C@H](C)N3C(=O)CCl)cc2)CC(C)O1 (some centres unmarked) [Compound 212] | – | 0.011 | IC50 (SJSA-1; [3]): 5.03 µM; IC50 (SJSA-1; [4]): 0.011 µM; IC50 (786-O; [5]): 4.96 µM; IC50 (786-O; [6]): 0.008 µM |
| C#CC(=O)N1[C@@H](c2ccc(S(=O)(=O)NC3CC3)cc2F)c2[nH]c3ccc(F)cc3c2C[C@@H]1C [Compound 153, N-cyclopropyl-3-fluoro-4-((1S,3S)-6-fluoro-3-methyl-2-propioloyl-2,3,4,9-tetrahydro-1H-pyrido[3,4-b]indol-1-yl)benzenesulfonamide] | 0.009 | 0.015 | – |
| CC#CC(=O)N1[C@@H](c2ccc(N3CCOCC3)cc2)c2[nH]c3ccccc3c2C[C@@H]1C [Compound 224] | – | > 3 | – |
| C=C(C(=O)N1[C@@H](c2ccc(N3CCOCC3)cc2)c2[nH]c3ccccc3c2C[C@@H]1C)C(F)(F)F [Compound 175] | > 10 | > 10 | – |
| C[C@H]1Cc2c([nH]c3ccccc23)[C@H](c2ccc(N3CCN(C)CC3)cc2)N1C(=O)CCl [Example 104] | – | 0.147 | – |
| C[C@H]1Cc2c([nH]c3ccccc23)[C@@H](c2ccc(N3CCOCC3)cc2)N1C(=O)CCl [Compound 125, 2-chloro-1-((1R,3S)-3-methyl-1-(4-morpholinophenyl)-1,3,4,9-tetrahydro-2H-pyrido[3,4-b]indol-2-yl)ethan-1-one] | 2 | 4 | – |
| C[C@H]1Cc2c([nH]c3ccccc23)[C@@H](c2cnn(C3CCOCC3)c2)N1C(=O)CCl [Compound 159] | 4.6 | – | – |
| C[C@H]1Cc2c([nH]c3ccccc23)[C@H](c2ccc(N3CCOCC3)cc2)N1C(=O)CF [Compound 227] | – | – | IC50 (SJSA-1; Cell Line SJSA-1, read-out: IC50): > 3 µM |
| C[C@H]1Cc2c([nH]c3ccccc23)[C@@H](c2ccc(S(=O)(=O)NC3CCNCC3)cc2)N1C(=O)CCl [Compound 133, 4-((1R,3S)-2-(2-chloroacetyl)-3-methyl-2,3,4,9-tetrahydro-1H-pyrido[3,4-b]indol-1-yl)-N-(piperidin-4-yl)benzenesulfonamide2,2,2-trifluoroacetic acid] | > 10 | > 10 | – |
| C[C@H]1Cc2c([nH]c3ccccc23)[C@H](c2ccc(S(=O)(=O)NC3CC3)cc2F)N1C(=O)CCl (single isomer, unassigned) [Compound 217] | 0.022 | 0.028 | – |
| C[C@H]1Cc2c([nH]c3ccccc23)[C@H](c2ccncc2)N1C(=O)CCl [Compound 171] | 0.162 | – | IC50 (SJSA-1; [3]): > 10 µM; IC50 (SJSA-1; [4]): 0.254 µM; IC50 (786-O; [5]): > 10 µM; IC50 (786-O; [6]): 0.162 µM |
| C#CC(=O)N1[C@@H](c2ccc(S(=O)(=O)NC3CC3)cc2F)c2[nH]c3ccccc3c2C[C@@H]1C [Compound 174] | 0.016 | – | IC50 (SJSA-1; [3]): 2.32 µM; IC50 (SJSA-1; [4]): 0.091 µM; IC50 (786-O; [5]): 5.09 µM; IC50 (786-O; [6]): 0.016 µM |
| COC(=O)c1ccc([C@H]2c3[nH]c4ccc(OC)cc4c3C[C@H](C)N2C(=O)CCl)cc1 [Compound 278] | 0.22 | 0.14 | – |
| C[C@H]1Cc2c([nH]c3ccccc23)[C@H](c2ccc(N3CCN(C)CC3)cc2)N1C(=O)OCl [Compound 104] | 0.068 | – | IC50 (KP4): 0.01 to 0.1 µM |
| C#CCOc1ccc2[nH]c3c(c2c1)C[C@H](C(=O)OC)N(C(=O)CCl)[C@H]3c1ccc(C(=O)NC23CC4CC(CC(C4)C2)C3)cc1 [Compound 211] | 0.009 | – | IC50 (SJSA-1; [3]): 5.92 µM; IC50 (SJSA-1; [4]): 0.011 µM; IC50 (786-O; [5]): 3.94 µM; IC50 (786-O; [6]): 0.009 µM |

From patent publication US11098040B2, “Compounds and methods of use” (Ferro Therapeutics, Inc., priority 2018, dated 2021)
